In patent US20190021995A1, “FORMULATION FOR TREATMENT OF PERIPHERAL JOINTS, SPINAL JOINTS AND/OR EXTRACELLULAR MATRIX ELEMENTS OF CONNECTIVE TISSUE, METHOD OF MANUFACTURE AND USES” (priority 2015, published 2019):

Assay: Studies of glucosamine salts delivered by the transdermal delivery system
Text: In accordance with the present invention, the above-indicated studies have shown that the transdermal delivery system described above can be used for delivering, for example, any glucosamine salt such as glucosamine hydrochloride, glucosamine sulfate, glucosamine sulfate stabilized with sodium chloride or potassium chloride.

N[C@H]1C(O)O[C@H](CO)[C@@H](O)[C@@H]1O.O=S(=O)(O)O.[Cl-].[K+] (stereo partly shown) [glucosamine sulfate potassium chloride]
bioavailability of glucosamine in blood plasma and synovial fluid among glucosamine salts: maximal bioavailability
